Assay results reported in patent publication US20250110133A1, “METHOD AND KIT FOR PREDICTING DRUG EFFICACY OF LUNG CANCER TREATMENT AND METHOD FOR TREATING LUNG CANCER” (National Health Research Institutes, priority 2023, published 2025).
“Also recorded” adds a separate entry of the source. Where two headings read alike, the source gives them in different places.

Columns and labels:
PC9 cells [1] = system: PC9 cells
Experimental: (§1) Cells were seeded in 96-well cell culture plates and treated the next day with the indicated concentrations of indicated EGFR-TKI. After 3 days, cell numbers were determined with MTT assay.
(§2) All cells are cultured in media containing 10% FBS (Gibco), 1% penicillin (Thermo Fisher, Waltham, MA, USA), and 1% streptomycin (Thermo Fisher); the cells are incubated at 37° C. in a humidified chamber with 5% CO2.
(§3) Cells are seeded at a density of 5×10^3 per well in a 96-well plate. […] An appropriate amount of DMSO is also added to the control cells. After 72 h of treatment, the cells are incubated with a solution of MTT (3-(4,5-dimethylthiazol-2-yl)-2,5-diphenyltetrazolium bromide) (Sigma-Aldrich) for 4 h at 37° C. Subsequently, the medium is aspirated, and 100 μL DMSO is added to solubilize the formazan. Colored formazan converted from MTT using viable cells is measured at 570 nm with a microplate reader (BioRad). Experiments are performed in triplicate. IC50 values are determined using the scientific and statistical software GraphPad Prism 10.0.0.

HCC827 cells [2] = settings: read-out: half-maximal inhibitory concentration (IC50)
Experimental: (§4) The HCC827 cell line is provided by Dr. Yi-Rong Chen from the Institute of Molecular and Genomic Medicine, National Health Research Institutes, Taiwan. […] PC9 and HCC827 cells are maintained in RPMI1640 (Cytiva). […] All cells are cultured in media containing 10% FBS (Gibco), 1% penicillin (Thermo Fisher, Waltham, MA, USA), and 1% streptomycin (Thermo Fisher); the cells are incubated at 37° C. in a humidified chamber with 5% CO2. […] The cells are checked for Mycoplasma (BioSmart, Seoul, Republic of Korea) upon thawing, and throughout the experimental period they consistently tested negative for Mycoplasma.
as §3

PC9 cells [3] = experiment: cells; settings: Homo sapiens, PC-9, 72 h, read-out: half-maximal inhibitory concentration (IC50)
Experimental: as §1, §2, §3

HCC827 cells [4] = experiment: cells; settings: Homo sapiens, HCC827, 72 h, read-out: half-maximal inhibitory concentration (IC50)
Experimental: as §4, §3

PC9 cells [5] = experiment: Colony formation assay for gefitinib sensitivity; assay type: cell-based, human; settings: 10-day treatment
Experimental: Data are presented as mean±standard error of mean, n=3. Differences between shLDOC1 and shCtrl at each indicated concentration are analyzed using Student's t test; * p<0.05 and ** p<0.01.

SMILES	IC50 / inhibitory effect in shLDOC1 cells compared with shCtrl cells (PC9 cells [1])	IC50 (HCC827 cells [2])	IC50 (PC9 cells [3])	IC50 (HCC827 cells [4])	colony formation under drug treatment (PC9 cells [5]; LDOC1-depleted (shLDOC1) PC9 cells)	colony formation under drug treatment (PC9 cells [5]; PC9-shCtrl cells)
C=CC(=O)Nc1cc(Nc2nccc(-c3cn(C)c4ccccc34)n2)c(OC)cc1N(C)CCN(C)C [osimertinib]	almost the same inhibitory effect	2300 nM	900 nM	1800 nM		
COc1cc2ncnc(Nc3ccc(F)c(Cl)c3)c2cc1OCCCN1CCOCC1 [gefitinib]					increased the number of cell colonies; also recorded: survive and form colonies	no colonies
